Assay results as given in the NIST ThermoML archive (doi:10.1021/acs.jced.8b00554).

Assay: xn = mol fraction of the nth substance listed
Details: Liquid, Vibrating tube method

CCCCCCCC [octane] + CCCO
mass density [kg/m3]
Details | 323.15 K | 333.15 K
100 kPa, x2 = 0.1631 | – | 675.2
100 kPa, x2 = 0.2111 | – | 677.49
100 kPa, x2 = 0.3158 | – | 683.44
100 kPa, x2 = 0.4411 | – | 692.56
100 kPa, x2 = 0.7301 | – | 721.13
100 kPa, x2 = 0.8823 | – | 744.98
1000 kPa, x2 = 0.2111 | – | 678.54
1000 kPa, x2 = 0.3158 | – | 684.58
1010 kPa, x2 = 0.1631 | – | 676.35
1010 kPa, x2 = 0.4411 | – | 694.32
1010 kPa, x2 = 0.8823 | – | 745.82
1020 kPa, x2 = 0.7301 | – | 722.21
2010 kPa, x2 = 0.1631 | – | 677.44
2010 kPa, x2 = 0.2111 | – | 679.63
2010 kPa, x2 = 0.3158 | – | 685.64
2010 kPa, x2 = 0.4411 | – | 695.36
2010 kPa, x2 = 0.7301 | – | 723.26
2010 kPa, x2 = 0.8823 | – | 746.82
3000 kPa, x2 = 0.2111 | – | 680.7
3000 kPa, x2 = 0.3158 | – | 686.7
3010 kPa, x2 = 0.1631 | – | 678.49
3010 kPa, x2 = 0.7301 | – | 724.3
3020 kPa, x2 = 0.4411 | – | 696.43
3020 kPa, x2 = 0.8823 | – | 747.84
4000 kPa, x2 = 0.3158 | – | 687.78
4000 kPa, x2 = 0.4411 | – | 697.47
4000 kPa, x2 = 0.7301 | – | 725.32
4010 kPa, x2 = 0.2111 | – | 681.76
4010 kPa, x2 = 0.8823 | – | 748.84
4020 kPa, x2 = 0.1631 | – | 679.56
5000 kPa, x2 = 0.8823 | – | 749.83
5010 kPa, x2 = 0.2111 | – | 682.8
5020 kPa, x2 = 0.1631 | – | 680.6
5020 kPa, x2 = 0.3158 | – | 688.8
5020 kPa, x2 = 0.4411 | – | 698.53
5020 kPa, x2 = 0.7301 | – | 726.33
6000 kPa, x2 = 0.2111 | – | 683.81
6010 kPa, x2 = 0.3158 | – | 689.87
6010 kPa, x2 = 0.4411 | – | 699.54
6010 kPa, x2 = 0.7301 | – | 727.35
6010 kPa, x2 = 0.8823 | – | 750.8
6020 kPa, x2 = 0.1631 | – | 681.62
7000 kPa, x2 = 0.1631 | – | 682.67
7000 kPa, x2 = 0.2111 | – | 684.85
7000 kPa, x2 = 0.3158 | – | 690.9
7010 kPa, x2 = 0.4411 | – | 700.57
7010 kPa, x2 = 0.8823 | – | 751.79
7020 kPa, x2 = 0.7301 | – | 728.39
8000 kPa, x2 = 0.8823 | – | 752.76
8010 kPa, x2 = 0.1631 | – | 683.7
8010 kPa, x2 = 0.7301 | – | 729.39
8020 kPa, x2 = 0.2111 | – | 685.89
8020 kPa, x2 = 0.3158 | – | 691.91
8020 kPa, x2 = 0.4411 | – | 701.57
9000 kPa, x2 = 0.4411 | – | 702.6
9010 kPa, x2 = 0.1631 | – | 684.68
9010 kPa, x2 = 0.2111 | – | 686.89
9010 kPa, x2 = 0.3158 | – | 692.93
9010 kPa, x2 = 0.7301 | – | 730.37
9010 kPa, x2 = 0.8823 | – | 753.69
10000 kPa, x2 = 0.2111 | – | 687.87
10000 kPa, x2 = 0.8823 | – | 754.64
10010 kPa, x2 = 0.3158 | 702.83 | 693.93
10010 kPa, x2 = 0.4411 | 711.7 | –
10010 kPa, x2 = 0.7301 | – | 731.35
10010 kPa, x2 = 0.8823 | 763.66 | –
10020 kPa, x2 = 0.1631 | – | 685.68
10020 kPa, x2 = 0.4411 | – | 703.57
11000 kPa, x2 = 0.1631 | 695.13 | –
11000 kPa, x2 = 0.3158 | – | 694.92
11010 kPa, x2 = 0.1631 | – | 686.66
11010 kPa, x2 = 0.2111 | 697.62 | –
11010 kPa, x2 = 0.3158 | 703.75 | –
11010 kPa, x2 = 0.4411 | 712.61 | 704.56
11010 kPa, x2 = 0.7301 | 741.5 | 732.33
11010 kPa, x2 = 0.8823 | 764.53 | 755.6
11020 kPa, x2 = 0.2111 | – | 688.87
12000 kPa, x2 = 0.2111 | – | 689.87
12000 kPa, x2 = 0.3158 | 704.66 | –
12000 kPa, x2 = 0.4411 | – | 705.54
12010 kPa, x2 = 0.7301 | 742.41 | –
12010 kPa, x2 = 0.8823 | 765.37 | 756.54
12020 kPa, x2 = 0.1631 | 696.03 | 687.66
12020 kPa, x2 = 0.2111 | 698.52 | –
12020 kPa, x2 = 0.3158 | – | 695.9
12020 kPa, x2 = 0.4411 | 713.53 | –
12020 kPa, x2 = 0.7301 | – | 733.28
13000 kPa, x2 = 0.8823 | 766.25 | 757.44
13010 kPa, x2 = 0.2111 | 699.43 | –
13010 kPa, x2 = 0.3158 | – | 696.87
13010 kPa, x2 = 0.4411 | 714.42 | –
13010 kPa, x2 = 0.7301 | 743.29 | –
13020 kPa, x2 = 0.1631 | 696.94 | 688.62
13020 kPa, x2 = 0.2111 | – | 690.84
13020 kPa, x2 = 0.3158 | 705.56 | –
13020 kPa, x2 = 0.4411 | – | 706.46
13020 kPa, x2 = 0.7301 | – | 734.24
14010 kPa, x2 = 0.1631 | 697.82 | –
14010 kPa, x2 = 0.2111 | 700.32 | 691.78
14010 kPa, x2 = 0.3158 | 706.45 | 697.84
14010 kPa, x2 = 0.4411 | 715.31 | 707.42
14010 kPa, x2 = 0.8823 | 767.11 | 758.35
14020 kPa, x2 = 0.1631 | – | 689.54
14020 kPa, x2 = 0.7301 | 744.18 | 735.17
15000 kPa, x2 = 0.1631 | – | 690.49
15000 kPa, x2 = 0.2111 | – | 692.73
15000 kPa, x2 = 0.7301 | 745.04 | –
15000 kPa, x2 = 0.8823 | 767.94 | –
15010 kPa, x2 = 0.1631 | 698.72 | –
15010 kPa, x2 = 0.2111 | 701.21 | –
15010 kPa, x2 = 0.4411 | – | 708.36
15020 kPa, x2 = 0.3158 | 707.35 | 698.76
15020 kPa, x2 = 0.4411 | 716.17 | –
15020 kPa, x2 = 0.7301 | – | 736.09
15020 kPa, x2 = 0.8823 | – | 759.26
16000 kPa, x2 = 0.1631 | – | 691.42
16000 kPa, x2 = 0.3158 | 708.22 | –
16000 kPa, x2 = 0.4411 | – | 709.26
16000 kPa, x2 = 0.7301 | 745.87 | –
16010 kPa, x2 = 0.1631 | 699.58 | –
16010 kPa, x2 = 0.2111 | – | 693.66
16010 kPa, x2 = 0.3158 | – | 699.72
16010 kPa, x2 = 0.4411 | 717.04 | –
16010 kPa, x2 = 0.8823 | 768.77 | 760.14
16020 kPa, x2 = 0.2111 | 702.08 | –
16020 kPa, x2 = 0.7301 | – | 737.02
17000 kPa, x2 = 0.1631 | 700.41 | –
17010 kPa, x2 = 0.2111 | 702.95 | 694.6
17010 kPa, x2 = 0.3158 | 709.05 | 700.63
17010 kPa, x2 = 0.4411 | 717.88 | 710.16
17010 kPa, x2 = 0.7301 | – | 737.93
17020 kPa, x2 = 0.1631 | – | 692.33
17020 kPa, x2 = 0.7301 | 746.73 | –
17020 kPa, x2 = 0.8823 | 769.6 | 761.01
18000 kPa, x2 = 0.1631 | 701.27 | 693.25
18000 kPa, x2 = 0.2111 | 703.77 | –
18010 kPa, x2 = 0.3158 | 709.93 | 701.51
18010 kPa, x2 = 0.4411 | 718.73 | 711.06
18010 kPa, x2 = 0.7301 | 747.56 | 738.78
18010 kPa, x2 = 0.8823 | 770.4 | 761.87
18020 kPa, x2 = 0.2111 | – | 695.49
19000 kPa, x2 = 0.1631 | – | 694.12
19000 kPa, x2 = 0.3158 | – | 702.41
19000 kPa, x2 = 0.7301 | – | 739.68
19000 kPa, x2 = 0.8823 | – | 762.72
19010 kPa, x2 = 0.1631 | 702.08 | –
19010 kPa, x2 = 0.2111 | 704.61 | 696.36
19010 kPa, x2 = 0.3158 | 710.75 | –
19010 kPa, x2 = 0.4411 | 719.58 | –
19010 kPa, x2 = 0.7301 | 748.4 | –
19020 kPa, x2 = 0.4411 | – | 711.94
19020 kPa, x2 = 0.8823 | 771.2 | –
20000 kPa, x2 = 0.1631 | – | 694.96
20000 kPa, x2 = 0.2111 | – | 697.38
20010 kPa, x2 = 0.1631 | 702.9 | –
20010 kPa, x2 = 0.2111 | 705.43 | –
20010 kPa, x2 = 0.3158 | – | 703.29
20010 kPa, x2 = 0.4411 | 720.41 | –
20010 kPa, x2 = 0.7301 | 749.2 | 740.54
20010 kPa, x2 = 0.8823 | 772.02 | 763.55
20020 kPa, x2 = 0.3158 | 711.56 | –
20020 kPa, x2 = 0.4411 | – | 711.91
